Assay in all cases: biochemical
Test [1] addresses 5HT2A (Homo sapiens, UniProt P28223).
For test [2], the target named is 5HT5A (Homo sapiens, UniProt P47898).
For test [3], the target named is MOR (Homo sapiens, UniProt P35372).
Test [4] has as its target DAT (Homo sapiens, UniProt Q01959).
In test [5] the target is D1 (Homo sapiens, UniProt P21728).
Test [6] deals with T1, D4 (Homo sapiens, UniProt P21917).
T1 sequence (P21917 1-419): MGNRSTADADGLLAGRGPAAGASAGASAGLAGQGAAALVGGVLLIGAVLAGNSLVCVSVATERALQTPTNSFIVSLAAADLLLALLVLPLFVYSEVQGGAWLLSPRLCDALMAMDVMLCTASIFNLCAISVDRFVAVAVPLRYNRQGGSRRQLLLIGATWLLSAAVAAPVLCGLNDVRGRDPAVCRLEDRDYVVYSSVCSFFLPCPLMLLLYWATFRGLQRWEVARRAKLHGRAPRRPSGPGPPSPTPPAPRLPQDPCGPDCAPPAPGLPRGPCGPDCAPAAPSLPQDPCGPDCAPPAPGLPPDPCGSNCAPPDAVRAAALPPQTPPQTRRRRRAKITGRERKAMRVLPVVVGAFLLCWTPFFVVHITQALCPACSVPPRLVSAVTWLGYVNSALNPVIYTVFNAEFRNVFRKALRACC

The target of test [7] is 5HT7A (Homo sapiens, UniProt P34969).
The target of test [8] is T2, 5HT1A (Homo sapiens, UniProt P08908).
T2 sequence (P08908 1-422): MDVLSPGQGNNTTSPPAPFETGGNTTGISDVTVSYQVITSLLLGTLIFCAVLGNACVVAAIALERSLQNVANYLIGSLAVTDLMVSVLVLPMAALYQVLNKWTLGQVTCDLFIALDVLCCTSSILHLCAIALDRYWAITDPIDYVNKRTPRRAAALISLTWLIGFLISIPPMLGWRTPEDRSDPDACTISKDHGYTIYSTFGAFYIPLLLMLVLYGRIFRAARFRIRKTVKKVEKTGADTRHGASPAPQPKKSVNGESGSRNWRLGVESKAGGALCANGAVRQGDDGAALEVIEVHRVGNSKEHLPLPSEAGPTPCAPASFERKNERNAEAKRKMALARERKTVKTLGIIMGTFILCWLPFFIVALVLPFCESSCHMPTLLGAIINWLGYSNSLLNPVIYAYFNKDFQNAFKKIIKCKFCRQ

Test [9] deals with T3, 5HT3 (Homo sapiens, UniProt P46098).
T3 sequence (P46098 1-478): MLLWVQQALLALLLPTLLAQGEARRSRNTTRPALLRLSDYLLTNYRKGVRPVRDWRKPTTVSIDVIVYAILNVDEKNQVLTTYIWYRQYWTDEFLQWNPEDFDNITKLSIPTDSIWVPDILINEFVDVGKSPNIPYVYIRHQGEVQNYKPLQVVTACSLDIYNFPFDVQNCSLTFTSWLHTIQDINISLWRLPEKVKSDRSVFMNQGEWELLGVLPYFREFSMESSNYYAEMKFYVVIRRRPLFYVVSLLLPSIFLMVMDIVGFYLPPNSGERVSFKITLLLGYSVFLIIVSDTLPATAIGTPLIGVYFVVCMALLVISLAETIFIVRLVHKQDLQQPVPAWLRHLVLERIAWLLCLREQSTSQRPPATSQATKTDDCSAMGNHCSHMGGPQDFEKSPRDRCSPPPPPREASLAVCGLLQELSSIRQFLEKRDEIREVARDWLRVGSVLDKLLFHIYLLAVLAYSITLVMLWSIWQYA

The target of test [10] is 5HT1E (Homo sapiens, UniProt P28566).
5HT1E, sequence (P28566 whole entry): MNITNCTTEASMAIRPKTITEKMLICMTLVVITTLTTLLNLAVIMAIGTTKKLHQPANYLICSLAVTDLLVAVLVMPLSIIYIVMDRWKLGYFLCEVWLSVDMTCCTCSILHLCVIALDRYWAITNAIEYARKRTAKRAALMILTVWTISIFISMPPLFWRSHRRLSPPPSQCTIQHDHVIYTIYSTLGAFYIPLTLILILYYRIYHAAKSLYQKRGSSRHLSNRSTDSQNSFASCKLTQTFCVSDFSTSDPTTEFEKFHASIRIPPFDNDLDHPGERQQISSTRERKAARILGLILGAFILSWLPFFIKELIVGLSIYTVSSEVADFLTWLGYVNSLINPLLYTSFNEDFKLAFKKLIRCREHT
Test [11] deals with D2 (Homo sapiens, UniProt P14416).
D2, sequence (P14416 whole entry): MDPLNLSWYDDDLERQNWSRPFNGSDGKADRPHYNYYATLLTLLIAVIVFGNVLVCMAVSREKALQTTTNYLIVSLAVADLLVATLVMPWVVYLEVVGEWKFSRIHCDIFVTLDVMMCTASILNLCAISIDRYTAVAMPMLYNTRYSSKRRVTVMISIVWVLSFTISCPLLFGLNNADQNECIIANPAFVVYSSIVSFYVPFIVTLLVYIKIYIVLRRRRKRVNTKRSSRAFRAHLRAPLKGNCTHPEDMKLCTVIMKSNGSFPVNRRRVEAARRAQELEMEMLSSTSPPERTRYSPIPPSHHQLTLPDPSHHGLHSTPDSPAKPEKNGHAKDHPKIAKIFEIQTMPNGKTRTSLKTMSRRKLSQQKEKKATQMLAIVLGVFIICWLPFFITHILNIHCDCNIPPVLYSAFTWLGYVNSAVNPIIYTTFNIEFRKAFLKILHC
The target of test [12] is NOP (Homo sapiens, UniProt P41146).
NOP, sequence (P41146 whole entry): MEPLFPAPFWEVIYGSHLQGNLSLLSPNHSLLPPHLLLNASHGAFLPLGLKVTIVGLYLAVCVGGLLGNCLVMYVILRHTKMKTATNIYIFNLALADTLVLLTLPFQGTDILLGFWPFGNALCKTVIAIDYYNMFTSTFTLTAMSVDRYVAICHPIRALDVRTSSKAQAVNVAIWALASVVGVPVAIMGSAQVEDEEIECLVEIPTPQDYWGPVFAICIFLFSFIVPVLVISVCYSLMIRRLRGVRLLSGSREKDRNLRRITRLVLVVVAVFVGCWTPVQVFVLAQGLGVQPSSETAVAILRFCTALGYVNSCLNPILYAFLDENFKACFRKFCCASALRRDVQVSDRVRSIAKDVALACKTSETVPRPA
The target in test [13] is H1 (Homo sapiens, UniProt P35367).
H1, sequence (P35367 whole entry): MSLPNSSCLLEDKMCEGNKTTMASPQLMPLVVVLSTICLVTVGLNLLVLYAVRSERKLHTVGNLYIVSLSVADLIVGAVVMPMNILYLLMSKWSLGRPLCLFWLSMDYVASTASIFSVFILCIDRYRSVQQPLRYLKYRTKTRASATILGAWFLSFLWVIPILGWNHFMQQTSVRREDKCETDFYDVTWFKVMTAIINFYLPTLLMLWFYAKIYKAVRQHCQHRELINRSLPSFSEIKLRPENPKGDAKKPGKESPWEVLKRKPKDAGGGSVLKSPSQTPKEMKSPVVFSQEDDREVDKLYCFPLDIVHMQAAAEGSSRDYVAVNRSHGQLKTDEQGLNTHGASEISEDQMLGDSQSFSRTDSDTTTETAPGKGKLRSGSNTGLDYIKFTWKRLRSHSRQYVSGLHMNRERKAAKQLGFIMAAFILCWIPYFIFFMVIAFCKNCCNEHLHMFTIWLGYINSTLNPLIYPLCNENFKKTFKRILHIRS
Test [14] addresses T4, 5HT2C (Homo sapiens, UniProt P28335).
T4 sequence (P28335 1-458): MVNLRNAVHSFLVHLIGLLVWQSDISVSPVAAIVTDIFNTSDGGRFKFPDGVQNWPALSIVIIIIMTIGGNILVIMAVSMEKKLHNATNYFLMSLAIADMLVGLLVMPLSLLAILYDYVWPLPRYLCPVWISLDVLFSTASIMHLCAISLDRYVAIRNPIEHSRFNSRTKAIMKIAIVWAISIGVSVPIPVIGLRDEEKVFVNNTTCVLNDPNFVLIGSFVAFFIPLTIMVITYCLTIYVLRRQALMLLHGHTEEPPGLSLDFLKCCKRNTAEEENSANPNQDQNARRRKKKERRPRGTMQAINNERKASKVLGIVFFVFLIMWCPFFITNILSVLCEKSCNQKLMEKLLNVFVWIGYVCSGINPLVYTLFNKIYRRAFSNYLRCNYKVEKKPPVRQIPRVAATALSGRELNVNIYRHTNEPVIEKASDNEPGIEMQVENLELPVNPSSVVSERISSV

Test [15] has as its target D3 (Homo sapiens, UniProt P35462).
In test [16] the target is D5 (Homo sapiens, UniProt P21918).
The target of test [17] is SERT (Homo sapiens, UniProt P31645).
Test [18] deals with 5HT6 (Homo sapiens, UniProt P50406).
5HT6, sequence (P50406 whole entry): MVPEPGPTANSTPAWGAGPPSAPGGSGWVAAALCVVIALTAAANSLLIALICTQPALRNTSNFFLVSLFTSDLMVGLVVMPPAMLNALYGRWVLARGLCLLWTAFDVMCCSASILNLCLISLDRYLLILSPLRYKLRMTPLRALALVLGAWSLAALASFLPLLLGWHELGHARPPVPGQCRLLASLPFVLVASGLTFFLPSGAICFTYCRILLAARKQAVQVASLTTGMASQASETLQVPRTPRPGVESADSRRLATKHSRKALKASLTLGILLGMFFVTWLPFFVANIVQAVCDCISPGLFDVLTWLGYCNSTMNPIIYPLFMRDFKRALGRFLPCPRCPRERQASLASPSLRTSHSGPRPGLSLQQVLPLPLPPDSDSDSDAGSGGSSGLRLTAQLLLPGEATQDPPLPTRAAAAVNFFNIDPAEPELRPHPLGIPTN
Test [19] has as its target 5HT2B (Homo sapiens, UniProt P41595).
In test [20] the target is H4 (Homo sapiens, UniProt Q9H3N8).
In test [21] the target is 5HT1D (Homo sapiens, UniProt P28221).
5HT1D, sequence (P28221 whole entry): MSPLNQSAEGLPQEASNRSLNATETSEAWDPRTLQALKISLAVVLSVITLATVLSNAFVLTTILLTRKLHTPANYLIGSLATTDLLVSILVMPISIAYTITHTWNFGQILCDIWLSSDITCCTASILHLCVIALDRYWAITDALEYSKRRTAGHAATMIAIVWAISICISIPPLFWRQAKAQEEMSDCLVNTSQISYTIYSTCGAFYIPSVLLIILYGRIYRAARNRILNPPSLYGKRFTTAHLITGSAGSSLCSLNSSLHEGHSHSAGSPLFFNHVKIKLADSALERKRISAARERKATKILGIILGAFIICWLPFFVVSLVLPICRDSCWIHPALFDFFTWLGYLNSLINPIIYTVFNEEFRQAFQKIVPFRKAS
Test [22] has as its target DOR (Homo sapiens, UniProt P41143).

5HT2B, sequence (P41595 whole entry): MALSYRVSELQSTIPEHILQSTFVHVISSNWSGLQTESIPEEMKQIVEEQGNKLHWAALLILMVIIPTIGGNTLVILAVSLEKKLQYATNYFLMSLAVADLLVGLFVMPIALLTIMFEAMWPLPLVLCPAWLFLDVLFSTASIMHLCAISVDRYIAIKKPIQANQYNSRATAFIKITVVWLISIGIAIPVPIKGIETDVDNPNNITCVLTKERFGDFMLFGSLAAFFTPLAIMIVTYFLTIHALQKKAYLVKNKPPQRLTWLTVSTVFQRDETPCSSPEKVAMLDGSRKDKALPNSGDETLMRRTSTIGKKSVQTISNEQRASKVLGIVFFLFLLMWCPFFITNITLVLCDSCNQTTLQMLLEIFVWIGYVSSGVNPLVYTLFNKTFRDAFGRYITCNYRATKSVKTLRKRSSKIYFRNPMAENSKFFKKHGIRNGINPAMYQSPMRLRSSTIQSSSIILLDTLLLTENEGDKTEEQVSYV
5HT5A, sequence (P47898 whole entry): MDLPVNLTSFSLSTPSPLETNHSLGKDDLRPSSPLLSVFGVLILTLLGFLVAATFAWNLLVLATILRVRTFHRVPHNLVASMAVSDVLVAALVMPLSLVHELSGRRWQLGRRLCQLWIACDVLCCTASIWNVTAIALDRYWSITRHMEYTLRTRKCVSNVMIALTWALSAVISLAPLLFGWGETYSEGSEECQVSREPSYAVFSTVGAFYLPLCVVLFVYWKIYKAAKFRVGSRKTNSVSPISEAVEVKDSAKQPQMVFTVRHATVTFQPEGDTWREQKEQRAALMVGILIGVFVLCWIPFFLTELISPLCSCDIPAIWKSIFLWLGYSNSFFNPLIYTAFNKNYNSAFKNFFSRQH
5HT2A, sequence (P28223 whole entry): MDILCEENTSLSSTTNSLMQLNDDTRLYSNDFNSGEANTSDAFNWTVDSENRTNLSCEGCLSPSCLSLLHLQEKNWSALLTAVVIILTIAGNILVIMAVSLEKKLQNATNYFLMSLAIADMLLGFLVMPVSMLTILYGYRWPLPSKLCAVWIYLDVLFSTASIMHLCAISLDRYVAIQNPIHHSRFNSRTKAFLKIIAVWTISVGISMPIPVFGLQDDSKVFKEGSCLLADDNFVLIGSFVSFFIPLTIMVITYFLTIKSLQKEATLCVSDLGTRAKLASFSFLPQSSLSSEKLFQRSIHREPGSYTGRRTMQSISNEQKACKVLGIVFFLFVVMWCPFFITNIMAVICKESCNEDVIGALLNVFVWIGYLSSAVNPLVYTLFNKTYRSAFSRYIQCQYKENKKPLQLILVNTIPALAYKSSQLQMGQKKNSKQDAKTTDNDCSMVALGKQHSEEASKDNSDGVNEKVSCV
DAT, sequence (Q01959 whole entry): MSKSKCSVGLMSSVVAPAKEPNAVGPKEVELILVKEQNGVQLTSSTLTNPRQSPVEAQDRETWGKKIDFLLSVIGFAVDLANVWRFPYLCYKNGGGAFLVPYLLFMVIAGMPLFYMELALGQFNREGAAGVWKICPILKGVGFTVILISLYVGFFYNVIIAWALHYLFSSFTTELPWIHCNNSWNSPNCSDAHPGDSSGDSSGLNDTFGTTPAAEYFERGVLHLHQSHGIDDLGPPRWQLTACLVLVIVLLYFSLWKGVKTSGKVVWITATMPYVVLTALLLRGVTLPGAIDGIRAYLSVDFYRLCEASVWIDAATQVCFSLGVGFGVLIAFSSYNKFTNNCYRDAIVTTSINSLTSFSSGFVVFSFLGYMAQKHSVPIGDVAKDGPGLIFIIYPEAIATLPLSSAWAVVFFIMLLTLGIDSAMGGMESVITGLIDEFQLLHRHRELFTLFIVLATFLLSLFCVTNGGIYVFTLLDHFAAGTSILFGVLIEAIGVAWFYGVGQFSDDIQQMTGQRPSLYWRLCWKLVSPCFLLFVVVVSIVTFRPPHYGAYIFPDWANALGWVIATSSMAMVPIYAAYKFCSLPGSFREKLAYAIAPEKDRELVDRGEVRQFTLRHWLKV
D3, sequence (P35462 whole entry): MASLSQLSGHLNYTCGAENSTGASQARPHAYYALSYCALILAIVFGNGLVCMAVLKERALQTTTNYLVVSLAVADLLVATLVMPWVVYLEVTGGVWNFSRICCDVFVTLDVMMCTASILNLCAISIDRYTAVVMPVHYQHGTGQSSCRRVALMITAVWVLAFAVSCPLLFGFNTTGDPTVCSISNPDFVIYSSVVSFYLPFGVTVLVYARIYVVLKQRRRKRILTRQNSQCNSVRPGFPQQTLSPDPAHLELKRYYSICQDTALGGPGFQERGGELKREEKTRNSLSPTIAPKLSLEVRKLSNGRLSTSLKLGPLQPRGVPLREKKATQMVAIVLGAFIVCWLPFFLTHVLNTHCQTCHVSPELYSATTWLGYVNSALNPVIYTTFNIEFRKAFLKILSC

Consider `Cc1cc(C(N)=O)cc(-c2cc(F)c(CNC3Cc4ccccc4C3)c(F)c2)c1` [1A], for which the Ki in test [1] is above 10000 nM; in test [2] it was above 10000 nM; in test [3], 8.3 nM; in test [4], 533 nM; in test [5], 998 nM; in test [6], 594 nM. Further, the Ki in test [7] was above 10000 nM; in [8], above 10000 nM; in test [9], above 10000 nM; in test [10], above 10000 nM; in [11], 6530 nM; in test [12], above 10000 nM. Further, the Ki in test [13] is above 10000 nM; in test [14] it was above 10000 nM; in test [15], 466 nM; in [16] it was above 10000 nM; in [17] it was 523 nM; in test [18], above 10000 nM. The Ki in [19] and in [20] was above 10000 nM each time.
With `Cc1cc(C(N)=O)cc(-c2ccc(CNC3Cc4ccccc4C3)c(F)c2)c1` [2A], the Ki in test [1] was above 10000 nM; in [2], above 10000 nM; in [3] it was 9.2 nM; in test [5], 1270 nM; in [6], 748 nM; in [7], 891 nM. The Ki in test [8], in test [9], in [10], in test [11], in test [12] and in test [13] was above 10000 nM in each case. Moreover, the Ki in test [14] is above 10000 nM; in [15] it was 748 nM; in test [16] it was above 10000 nM; in test [21], 1660 nM; in [17], 174 nM; in test [18], above 10000 nM. Further, the figures for the Ki in [22], in [19] and in test [20] were 350 nM, above 10000 nM and above 10000 nM, respectively.
On to `Cc1cc(C(N)=O)cc(-c2ccc(CNC3Cc4ccccc4C3)cc2)c1` [3A], for which the inhibition constant Ki in test [1] is above 10000 nM; in [2] it was above 10000 nM; in test [3], 7.8 nM; in test [4] it was 850 nM; in test [5] it was 1320 nM; in test [6], 27.2 nM. Also, the Ki in test [7] is 977 nM; in test [8] it was above 10000 nM; in test [9] it was above 10000 nM; in test [11], above 10000 nM; in [12] it was above 10000 nM; in [13], above 10000 nM. Further, the inhibitory constant (Ki) in test [14] was 2270 nM; in test [15], above 10000 nM; in test [16], above 10000 nM; in [21], above 10000 nM; in test [17] it was 310 nM; in test [18], above 10000 nM. In addition, the Ki in test [19] and in [20] was above 10000 nM each time.
With `Cc1cc(-c2cc(F)c(CNC3Cc4ccccc4C3)c(F)c2)cc(-c2ncn[nH]2)c1` [4A], the Ki in [1] was above 10000 nM; in test [2], above 10000 nM; in [4], 497 nM; in [5], 1870 nM; in test [6], 1770 nM; in [7], above 10000 nM. Also, the Ki in test [8], in test [9], in [11], in test [12], in [13] and in [14] was above 10000 nM in each case. Moreover, the Ki in test [15] was above 10000 nM; in test [16], above 10000 nM; in test [17] it was 334 nM; in [18], above 10000 nM; in [19], 484 nM; in test [20] it was above 10000 nM.
Take `Cc1cc(-c2ccc(CNC3Cc4ccccc4C3)cc2)cc(-c2nc[nH]n2)c1` [6A]: the inhibitory constant (Ki) in test [1] amounted to 1000 nM; in [2], 3940 nM; in test [3], 4.2 nM; in test [4], 287 nM; in test [5] it was 716 nM; in [6], 1770 nM. In addition, the Ki is 747 nM in test [7]; above 10000 nM in [8]; above 10000 nM in [9]; above 10000 nM in test [10]; above 10000 nM in test [11]; 167 nM in test [12]. Besides, the Ki is 1450 nM in test [13]; 470 nM in [14]; above 10000 nM in [15]; above 10000 nM in test [16]; 1320 nM in test [21]; 130 nM in [17]. Besides, the Ki in test [18] is above 10000 nM; in test [22], 98 nM; in test [19], 826 nM; in test [20] it was above 10000 nM.

As a reminder, the Ki is a measure of affinity in units of concentration, obtained from inhibition or displacement. Low readings indicate tighter binding, high ones weaker binding.

(Values after publication doi:10.1101/2024.10.12.618019v1 (biorxiv, 2024).)
